Reference: PubChem BioAssay (NCI)
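Assay format: 96-well plates, 48-hour exposure. GI50 is the concentration that inhibits growth by half. TGI marks complete inhibition of growth.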

Tests used:
Test in all cases: NCI tumour cell line growth inhibition, 48 h
EKVX NSCLC = test system: EKVX NSCLC
HCT-116 colon = test system: HCT-116 colon
M14 melanoma = test system: M14 melanoma
NCI-H226 lung = test system: NCI-H226 lung
SF-268 CNS = test system: SF-268 CNS
RXF 393 renal = test system: RXF 393 renal
SNB-75 CNS = test system: SNB-75 CNS
BT-549 breast = test system: BT-549 breast
HS 578T breast = test system: HS 578T breast
NCI/ADR-RES ovarian = test system: NCI/ADR-RES ovarian

Compound: COc1cc(/C=C(\C#N)C(=O)c2ccccc2)ccc1O
- TGI (EKVX NSCLC): > 100 µM
- TGI (HCT-116 colon): > 100 µM
- TGI (M14 melanoma): > 100 µM
- TGI (NCI-H226 lung): > 100 µM
- TGI (SF-268 CNS): > 100 µM

Compound: CN(C)c1ccc([O][Bi]([Cl])[Cl])cc1
- GI50 (EKVX NSCLC): > 100 µM
- TGI (EKVX NSCLC): > 100 µM
- GI50 (HCT-116 colon): > 100 µM
- TGI (HCT-116 colon): > 100 µM
- GI50 (M14 melanoma): 87 µM
- TGI (M14 melanoma): > 100 µM
- GI50 (NCI-H226 lung): > 100 µM
- TGI (NCI-H226 lung): > 100 µM
- GI50 (RXF 393 renal): 82.2 µM
- TGI (RXF 393 renal): > 100 µM
- GI50 (SNB-75 CNS): > 100 µM
- TGI (SNB-75 CNS): > 100 µM

Compound: COC(=O)C(=O)OC1(C(C)=O)CC2(c3ccccc3)OC1(c1ccccc1)c1ccccc12 (stereo not drawn)
- TGI (EKVX NSCLC): 42 µM
- TGI (HCT-116 colon): 33.8 µM
- TGI (M14 melanoma): 31.9 µM
- TGI (NCI-H226 lung): 31.7 µM
- TGI (RXF 393 renal): 29 µM
- TGI (SF-268 CNS): 44 µM
- TGI (SNB-75 CNS): 61.5 µM

Compound: CC1=C2C[C@H]3[C@@H](CC[C@@H]4CC(NS(C)(=O)=O)CC[C@@]43C)[C@@H]2CC[C@@]2(C1)O[C@@H]1C[C@H](C)CN[C@H]1[C@H]2C (stereo partly drawn)
- GI50 (BT-549 breast): 12 µM
- TGI (BT-549 breast): 26 µM
- GI50 (HCT-116 colon): 4.77 µM
- TGI (HCT-116 colon): 18.4 µM
- GI50 (HS 578T breast): 11.8 µM
- TGI (HS 578T breast): 37.5 µM
- GI50 (M14 melanoma): 7.92 µM
- TGI (M14 melanoma): 22.6 µM
- GI50 (NCI-H226 lung): 5.44 µM
- TGI (NCI-H226 lung): 21.1 µM
- GI50 (NCI/ADR-RES ovarian): 12.2 µM
- TGI (NCI/ADR-RES ovarian): 28.3 µM
- GI50 (RXF 393 renal): 3.65 µM
- TGI (RXF 393 renal): 15.6 µM
- GI50 (SF-268 CNS): 12.1 µM
- TGI (SF-268 CNS): 26.6 µM
- GI50 (SNB-75 CNS): 3.07 µM
- TGI (SNB-75 CNS): 15.9 µM

Compound: Oc1ccccc1C=NCc1ccco1
- TGI (EKVX NSCLC): > 100 µM
- TGI (HCT-116 colon): > 100 µM
- TGI (M14 melanoma): > 100 µM
- TGI (NCI-H226 lung): > 100 µM
- TGI (RXF 393 renal): > 100 µM
- TGI (SF-268 CNS): > 100 µM
- TGI (SNB-75 CNS): > 100 µM

Compound: CC(=O)[CH-]C(=O)c1ccccc1.CC(=O)[CH-]C(=O)c1ccccc1.CC1(C)C2CCC1(C)C([O-])C2.CC1(C)C2CCC1(C)C([O-])C2.[Ti+4]
- GI50 (EKVX NSCLC): 69.6 µM
- TGI (EKVX NSCLC): > 100 µM
- GI50 (HCT-116 colon): 34.9 µM
- TGI (HCT-116 colon): > 100 µM
- GI50 (M14 melanoma): 20.4 µM
- TGI (M14 melanoma): 44.1 µM
- GI50 (NCI-H226 lung): 23.2 µM
- TGI (NCI-H226 lung): 90.7 µM
- GI50 (RXF 393 renal): 17.6 µM
- TGI (RXF 393 renal): 36.1 µM
- GI50 (SF-268 CNS): 34.8 µM
- TGI (SF-268 CNS): > 100 µM

Compound: BrC1=CC=C2NC=CC3=CC=NC1C32 (stereo not drawn)
- TGI (EKVX NSCLC): > 96.3 µM
- TGI (HCT-116 colon): 21.1 µM
- TGI (M14 melanoma): 56.2 µM
- TGI (NCI-H226 lung): 45.9 µM
- TGI (RXF 393 renal): 51.7 µM
- TGI (SF-268 CNS): > 92.5 µM
- TGI (SNB-75 CNS): 98.9 µM

Compound: CCOc1ccc(-c2nonc2NC(=O)c2cccc(C)c2)cc1OCC
- GI50 (BT-549 breast): > 100 µM
- TGI (BT-549 breast): > 100 µM
- GI50 (HCT-116 colon): 35.7 µM
- TGI (HCT-116 colon): > 100 µM
- GI50 (HS 578T breast): > 100 µM
- TGI (HS 578T breast): > 100 µM
- GI50 (NCI-H226 lung): > 100 µM
- TGI (NCI-H226 lung): > 100 µM
- GI50 (NCI/ADR-RES ovarian): > 100 µM
- TGI (NCI/ADR-RES ovarian): > 100 µM
- GI50 (RXF 393 renal): > 100 µM
- TGI (RXF 393 renal): > 100 µM
- GI50 (SF-268 CNS): 90.5 µM
- TGI (SF-268 CNS): > 100 µM
- GI50 (SNB-75 CNS): 14.5 µM
- TGI (SNB-75 CNS): 52.3 µM

Compound: Cc1ccccc1C(=O)c1ccccc1O
- TGI (EKVX NSCLC): > 100 µM
- TGI (HCT-116 colon): > 100 µM
- TGI (M14 melanoma): > 100 µM
- TGI (NCI-H226 lung): > 100 µM
- TGI (RXF 393 renal): > 100 µM
- TGI (SF-268 CNS): > 100 µM
- TGI (SNB-75 CNS): > 100 µM

Compound: O=C(CO)CC(=O)C(=O)Nc1ccccc1
- TGI (EKVX NSCLC): > 100 µM
- TGI (HCT-116 colon): > 100 µM
- TGI (M14 melanoma): > 100 µM
- TGI (NCI-H226 lung): > 100 µM
- TGI (RXF 393 renal): > 100 µM
- TGI (SF-268 CNS): > 100 µM

Compound: O=c1nc2n(-c3ccc(Cl)cc3)c3ccc([N+](=O)[O-])cc3cc-2c(=O)[nH]1
- GI50 (BT-549 breast): 13.6 µM
- TGI (BT-549 breast): 46.2 µM
- GI50 (EKVX NSCLC): 37.2 µM
- TGI (EKVX NSCLC): 82.5 µM
- GI50 (HCT-116 colon): 16.1 µM
- TGI (HCT-116 colon): 33.2 µM
- GI50 (M14 melanoma): 20.2 µM
- TGI (M14 melanoma): 37.7 µM
- GI50 (NCI-H226 lung): 21.1 µM
- TGI (NCI-H226 lung): 60.5 µM
- GI50 (NCI/ADR-RES ovarian): 49.6 µM
- TGI (NCI/ADR-RES ovarian): > 100 µM
- GI50 (RXF 393 renal): 18.8 µM
- TGI (RXF 393 renal): > 100 µM
- GI50 (SF-268 CNS): 16.5 µM
- TGI (SF-268 CNS): 64.5 µM
- GI50 (SNB-75 CNS): > 100 µM
- TGI (SNB-75 CNS): > 100 µM

Compound: Cn1c(=O)nc2n(-c3cccc(Br)c3)c3ccccc3nc-2c1=O
- TGI (EKVX NSCLC): 13.3 µM
- TGI (HCT-116 colon): 18.1 µM
- TGI (M14 melanoma): 10.1 µM
- TGI (NCI-H226 lung): 22.2 µM
- TGI (RXF 393 renal): 24 µM
- TGI (SF-268 CNS): 23.4 µM
- TGI (SNB-75 CNS): 22.2 µM

Compound: N#CC(C(=O)/C(=N/N)C(C#N)c1ccccc1)c1ccccc1 (stereo not drawn)
- TGI (EKVX NSCLC): > 100 µM
- TGI (HCT-116 colon): > 100 µM
- TGI (M14 melanoma): > 100 µM
- TGI (NCI-H226 lung): > 100 µM
- TGI (RXF 393 renal): > 100 µM
- TGI (SF-268 CNS): > 100 µM

Compound: CCC/C(=N/N=C(N)N)c1ccc(NC(=O)c2cc3cc(OC)ccc3[nH]2)cc1
- GI50 (BT-549 breast): 13.5 µM
- TGI (BT-549 breast): 53.5 µM
- GI50 (HS 578T breast): 14 µM
- TGI (HS 578T breast): 48.4 µM
- GI50 (NCI-H226 lung): 14.7 µM
- TGI (NCI-H226 lung): 41.7 µM
- GI50 (NCI/ADR-RES ovarian): 79.7 µM
- TGI (NCI/ADR-RES ovarian): > 100 µM
- GI50 (RXF 393 renal): 10.6 µM
- TGI (RXF 393 renal): 30.8 µM
- GI50 (SF-268 CNS): 5.22 µM
- TGI (SF-268 CNS): 29.9 µM
- GI50 (SNB-75 CNS): 2.94 µM
- TGI (SNB-75 CNS): 18 µM

Compound: Clc1cc(Cc2cc(Cl)c(Cl)c3c2OCOC3)c2c(c1Cl)COCO2
- TGI (HCT-116 colon): > 100 µM
- TGI (M14 melanoma): > 100 µM
- TGI (NCI-H226 lung): 72.9 µM
- TGI (RXF 393 renal): 70.3 µM
- TGI (SF-268 CNS): > 100 µM
- TGI (SNB-75 CNS): 52.3 µM

Compound: O=C1NC(=O)C2C(=O)NC(=O)C1C2(c1ccccc1)c1cc[nH]c1 (stereo not drawn)
- TGI (EKVX NSCLC): > 100 µM
- TGI (M14 melanoma): > 100 µM
- TGI (NCI-H226 lung): > 100 µM
- TGI (RXF 393 renal): > 100 µM
- TGI (SF-268 CNS): > 100 µM
- TGI (SNB-75 CNS): > 100 µM

Compound: CC(=O)[CH-]C(=O)c1ccccc1.CC(=O)[CH-]C(=O)c1ccccc1.[Eu+3].[OH-].[OH3+]
- GI50 (EKVX NSCLC): > 100 µM
- TGI (EKVX NSCLC): > 100 µM
- GI50 (HCT-116 colon): > 100 µM
- TGI (HCT-116 colon): > 100 µM
- GI50 (M14 melanoma): > 100 µM
- TGI (M14 melanoma): > 100 µM
- GI50 (RXF 393 renal): > 100 µM
- TGI (RXF 393 renal): > 100 µM
- GI50 (SNB-75 CNS): 96.1 µM
- TGI (SNB-75 CNS): > 100 µM

Compound: COc1cc(-c2nn(-c3cccc(NC(=O)Nc4cc(C(F)(F)F)cc(C(F)(F)F)c4)c3)cc2-c2ccncc2)ccc1Cl
- GI50 (BT-549 breast): 1.26 µM
- TGI (BT-549 breast): 3.45 µM
- GI50 (HCT-116 colon): 0.442 µM
- TGI (HCT-116 colon): 2.44 µM
- GI50 (HS 578T breast): 1.16 µM
- TGI (HS 578T breast): 8.81 µM
- GI50 (M14 melanoma): 0.826 µM
- TGI (M14 melanoma): 4.68 µM
- GI50 (NCI-H226 lung): 1.14 µM
- TGI (NCI-H226 lung): 11.7 µM
- GI50 (NCI/ADR-RES ovarian): 1.02 µM
- TGI (NCI/ADR-RES ovarian): 7.25 µM
- GI50 (RXF 393 renal): 0.841 µM
- TGI (RXF 393 renal): 2.15 µM
- GI50 (SF-268 CNS): 0.896 µM
- TGI (SF-268 CNS): 2.3 µM
- GI50 (SNB-75 CNS): 0.961 µM
- TGI (SNB-75 CNS): 2.74 µM

Compound: N#Cc1c(NN)nc(NN)c(C#N)c1-c1ccccc1
- TGI (EKVX NSCLC): > 100 µM
- TGI (HCT-116 colon): > 100 µM
- TGI (M14 melanoma): > 100 µM
- TGI (NCI-H226 lung): > 100 µM
- TGI (RXF 393 renal): > 100 µM
- TGI (SF-268 CNS): > 100 µM
- TGI (SNB-75 CNS): > 100 µM

Compound: CCc1c(C#N)c(S[C@@H](C(N)=O)c2ccccc2)nc(N(C)C)c1C#N
- GI50 (EKVX NSCLC): 7.93 µM
- TGI (EKVX NSCLC): > 100 µM
- GI50 (HCT-116 colon): > 100 µM
- TGI (HCT-116 colon): > 100 µM
- GI50 (M14 melanoma): > 100 µM
- TGI (M14 melanoma): > 100 µM
- GI50 (NCI-H226 lung): 4.76 µM
- TGI (NCI-H226 lung): > 100 µM
- GI50 (RXF 393 renal): 4.51 µM
- TGI (RXF 393 renal): 51.9 µM
- GI50 (SF-268 CNS): 5.07 µM
- TGI (SF-268 CNS): > 100 µM
- GI50 (SNB-75 CNS): 2.11 µM
- TGI (SNB-75 CNS): 7.18 µM
